Experimental data published in US20190100534A1, “Cephem Compounds with Latent Reactive Groups” (Gladius Pharmaceuticals, Inc., priority 2017, published 2019).

Legend:
Test in all cases: MIC determination, isogenic E. coli strains
Assay type in all cases: cell-based
[1] = system: Isogenic E. coli J58 strain carrying KPC-2; conditions: for Mimimum Inhibitory Concentrations, KPC-2: isogenic E. coli strain, CAMH broth, 20 μM Apo-Transferrin, 37° C., 18 hours; for MIC: Escherichia coli, 18 h, read-out: Mimimum Inhibitory Concentrations, KPC-2
Procedure: (§1) Sterile technique was used throughout these experiments. Suspensions of organisms were removed from storage (−80° C.) and partially thawed. Partially thawed organisms (1 μL) were inoculated into 3 mL sterile LB Broth in a sterile culture tube and capped, then cultured at 37° C. with shaking for 4-5 hours until the optical density at 600 nm (OD600) was greater than 0.1 on a single beam spectrophotometer.
(§2) The concentration of organisms was adjusted to 0.08-0.1 OD600 (0.5 McFarland units) by dilution with sterile cation-adjusted Meuller-Hinton (CAMH) broth. The suspensions were used within 30 minutes of preparation.
(§3) A stock solution was made of each test compound by measuring 6.4 mg of the compound on an analytical balance and dissolving it in DMSO (1 mL) to get a transparent solution. The solutions were stored at −20° C. and thawed prior to use.
(§4) Sterile CAMH broth (200 μL) containing 20 μM Apo-Transferrin was pipetted into the first row of 8 columns of a sterile, round-bottomed, transparent, 96-well microplate using an 8-channel pipette equipped with sterile tips. One hundred μL was pipetted into the wells of the remaining 11 rows.
(§5) With an 8-channel pipette equipped with sterile tips, 100 μL of the first row solution was transferred to the second row and mixed. The process was repeated for the second to third rows and continued through row 11. One hundred μL from row 11 was removed and discarded so that all 12 rows contained 100 μL. Row 12 contained no compound and rows 1-11 contained 64, 32, 16, 8, 4, 2, 1, 0.5, 0.25, 0.125, […] of a given compound.
(§6) Inoculant suspensions (0.5 μL) were added to the 12 wells of each column. The plates were then covered and incubated at 37° C. overnight for 18 hours.
(§7) For each organism the MIC was determined by identifying the transparent well with the lowest test compound concentration.
(§8) KPC-2 and KPC-3 (Class A, Group 2f, carbapenemases);
(§9) The gene sequence for each beta-lactamase enzyme was synthesized and inserted into the pBC-SK(+) plasmid by GenScript, a commercial service. E. coli J53 was transformed with each plasmid via electroporation and resistant transformants were selected on agar plates containing 50 micrograms/mL ampicillin. The selected transformants were stored at −80 degrees C. in 20% glycerol.

[2] = system: Isogenic E. coli J58 strain carrying KPC-3; conditions: for Mimimum Inhibitory Concentrations, KPC-3: isogenic E. coli strain, CAMH broth, 20 μM Apo-Transferrin, 37° C., 18 hours; for MIC: Escherichia coli, 18 h, read-out: Mimimum Inhibitory Concentrations, KPC-3
Procedure: as §1, §2, §3, §4, §5, §6, §7, §8, §9

E. coli J53 Alone = conditions: for Mimimum Inhibitory Concentrations, J53 Alone: CAMH broth, 20 μM Apo-Transferrin, 37° C., 18 hours; for MIC: Escherichia coli, J53ALONE, 18 h, read-out: Mimimum Inhibitory Concentrations, J53 Alone
Procedure: as §1, §2, §3, §4, §5, §6, §7, §9

[3] = system: Isogenic E. coli J58 strain carrying DHA-1; conditions: for Mimimum Inhibitory Concentrations, DHA-1: isogenic E. coli strain, CAMH broth, 20 μM Apo-Transferrin, 37° C., 18 hours; for MIC: Escherichia coli, 18 h, read-out: Mimimum Inhibitory Concentrations, DHA-1
Procedure: as §1, §2, §3, §4, §5, §6, §7, §9

[4] = system: Isogenic E. coli J58 strain carrying TEM-26; conditions: for Mimimum Inhibitory Concentrations, TEM-26: isogenic E. coli strain, CAMH broth, 20 μM Apo-Transferrin, 37° C., 18 hours; for MIC: Escherichia coli, 18 h, read-out: Mimimum Inhibitory Concentrations, TEM-26
Procedure: as §1, §2, §3, §4, §5, §6, §7
TEM-26 (Group 2be beta-lactamase, hydrolyzes extended spectrum cephalosporins and monobactams), [25];
as §9

[5] = system: Isogenic E. coli J58 strain carrying NDM-1; conditions: for Mimimum Inhibitory Concentrations, NDM-1: isogenic E. coli strain, CAMH broth, 20 μM Apo-Transferrin, 37° C., 18 hours; for MIC: Escherichia coli, 18 h, read-out: Mimimum Inhibitory Concentrations, NDM-1
Procedure: as §1, §2, §3, §4, §5, §6, §7
NDM-1 (Group 3a carbapenemase, broad spectrum divalent Zn^++ metallo-Beta-Lactamase);
as §9

[6] = system: Isogenic E. coli J58 strain carrying IMP-1; conditions: for Mimimum Inhibitory Concentrations, IMP-1: isogenic E. coli strain, CAMH broth, 20 μM Apo-Transferrin, 37° C., 18 hours; for MIC: Escherichia coli, 18 h, read-out: Mimimum Inhibitory Concentrations, IMP-1
Procedure: as §1, §2, §3, §4, §5, §6, §7
IMP-1 (Group 3a carbapenemase, metallo-beta-Lactamase).
as §9

[7] = system: Isogenic E. coli J58 strain carrying SHV-1; conditions: for Mimimum Inhibitory Concentrations, SHV-1: isogenic E. coli strain, CAMH broth, 20 μM Apo-Transferrin, 37° C., 18 hours; for MIC: Escherichia coli, 18 h, read-out: Mimimum Inhibitory Concentrations, SHV-1
Procedure: as §1, §2, §3, §4, §5, §6, §7
SHV-1 (Class A, Group 2b beta-lactamase, hydrolyzes penicillins and early cephalosporins);
as §9

[8] = system: Isogenic E. coli J58 strain carrying VIM-2; conditions: for Mimimum Inhibitory Concentrations, VIM-2: isogenic E. coli strain, CAMH broth, 20 μM Apo-Transferrin, 37° C., 18 hours; for MIC: Escherichia coli, 18 h, read-out: Mimimum Inhibitory Concentrations, VIM-2
Procedure: as §1, §2, §3, §4, §5, §6, §7
VIM-2 (Group 3a carbapenemase, metallo-beta-lactamase); and
as §9

[9] = system: Isogenic E. coli J58 strain carrying CTX-M-15; conditions: for Mimimum Inhibitory Concentrations, CTX-M-15: isogenic E. coli strain, CAMH broth, 20 μM Apo-Transferrin, 37° C., 18 hours; for MIC: Escherichia coli, 18 h, read-out: Mimimum Inhibitory Concentrations, CTX-M-15
Procedure: as §1, §2, §3, §4, §5, §6, §7
(§10) CTX-M-14 and CTX-M-15 (Class A, Group 2be beta-lactamases, hydrolyzes extended spectrum cephalosporins and monobactams);
as §9

[10] = system: Isogenic E. coli J58 strain carrying CTX-M-14; conditions: for Mimimum Inhibitory Concentrations, CTX-M-14: isogenic E. coli strain, CAMH broth, 20 μM Apo-Transferrin, 37° C., 18 hours; for MIC: Escherichia coli, 18 h, read-out: Mimimum Inhibitory Concentrations, CTX-M-14
Procedure: as §1, §2, §3, §4, §5, §6, §7, §10, §9

CC(C)(O/N=C(\C(=O)N[C@@H]1C(=O)N2C(C(=O)O)=C(C=Cc3ccc(C[n+]4ccc(O)c(O)c4)cc3)CS[C@H]12)c1csc(N)n1)C(=O)O (mixture of isomers) [Compound 443, 1-(4-((E/Z)-2-((6R,7R)-7-((Z)-2-(2-aminothiazol-4-yl)-2-(((2-carboxypropan-2-yl)oxy)imino)acetamido)-2-carboxy-8-oxo-5-thia-1-azabicyclo[4.2.0]oct-2-en-3-yl)vinyl)benzyl)-3,4-dihydroxypyridin-1-ium]
Mimimum Inhibitory Concentrations, KPC-2 [1]: 8 microgram/mL | Mimimum Inhibitory Concentrations, KPC-3 [2]: 4 microgram/mL | Mimimum Inhibitory Concentrations, J53 Alone (E. coli J53 Alone; Table 4-1): 0.13 microgram/mL | Mimimum Inhibitory Concentrations, J53 Alone (E. coli J53 Alone; Table 4-2): 0.13 microgram/mL | Mimimum Inhibitory Concentrations, DHA-1 [3]: 1 microgram/mL | Mimimum Inhibitory Concentrations, TEM-26 [4]: 2 microgram/mL | Mimimum Inhibitory Concentrations, NDM-1 [5]: >64 microgram/mL | Mimimum Inhibitory Concentrations, IMP-1 [6]: 4 microgram/mL | Mimimum Inhibitory Concentrations, SHV-1 [7]: 1 microgram/mL | Mimimum Inhibitory Concentrations, VIM-2 [8]: 0.25 microgram/mL | Mimimum Inhibitory Concentrations, CTX-M-15 [9]: 1 microgram/mL | Mimimum Inhibitory Concentrations, CTX-M-14 [10]: 0.25 microgram/mL

CC(C)(O/N=C(\C(=O)N[C@@H]1C(=O)N2C(C(=O)O)=C(C=Cc3ccc(C[N+]4(C5CCC5)CCc5ccc(O)c(O)c5C4)cc3)CS[C@H]12)c1csc(N)n1)C(=O)O (mixture of isomers) [Compound 444, 2-(4-((E/Z)-2-((6R,7R)-7-((Z)-2-(2-aminothiazol-4-yl)-2-(((2-carboxypropan-2-yl)oxy)imino)acetamido)-2-carboxy-8-oxo-5-thia-1-azabicyclo[4.2.0]oct-2-en-3-yl)vinyl)benzyl)-2-cyclobutyl-7,8-dihydroxy-1,2,3,4-tetrahydroisoquinolin-2-ium]
Mimimum Inhibitory Concentrations, KPC-2 [1]: 8 microgram/mL | Mimimum Inhibitory Concentrations, KPC-3 [2]: 2 microgram/mL | Mimimum Inhibitory Concentrations, J53 Alone (E. coli J53 Alone; Table 4-1): 0.5 microgram/mL | Mimimum Inhibitory Concentrations, J53 Alone (E. coli J53 Alone; Table 4-2): 0.5 microgram/mL | Mimimum Inhibitory Concentrations, DHA-1 [3]: 1 microgram/mL | Mimimum Inhibitory Concentrations, TEM-26 [4]: 0.25 microgram/mL | Mimimum Inhibitory Concentrations, NDM-1 [5]: 32 microgram/mL | MICs for an E. coli strain carrying the gene for NDM-1, in words ([5]; review of Tables 4-1 and 4-2): lower MICS compared to other compounds tested | Mimimum Inhibitory Concentrations, IMP-1 [6]: 0.5 microgram/mL | Mimimum Inhibitory Concentrations, SHV-1 [7]: 1 microgram/mL | Mimimum Inhibitory Concentrations, VIM-2 [8]: 0.5 microgram/mL | Mimimum Inhibitory Concentrations, CTX-M-15 [9]: 1 microgram/mL | Mimimum Inhibitory Concentrations, CTX-M-14 [10]: 0.25 microgram/mL

CC(C)(O/N=C(\C(=O)N[C@@H]1C(=O)N2C(C(=O)O)=C(C=Cc3ccc(C[N+]4(C)CCc5cc(O)c(O)cc5C4)cc3[N+](=O)[O-])CS[C@H]12)c1csc(N)n1)C(=O)O (mixture of isomers) [Compound 445, 2-(4-((E/Z)-2-((6R,7R)-7-((Z)-2-(2-aminothiazol-4-yl)-2-(((2-carboxypropan-2-yl)oxy)imino)acetamido)-2-carboxy-8-oxo-5-thia-1-azabicyclo[4.2.0]oct-2-en-3-yl)vinyl)-3-nitrobenzyl)-6,7-dihydroxy-2-methyl-1,2,3,4-tetrahydroisoquinolin-2-ium]
MIC [1]: 64 µg/mL | MIC [2]: 16 µg/mL | MIC (E. coli J53 Alone): 1 µg/mL | Mimimum Inhibitory Concentrations, J53 Alone (E. coli J53 Alone; Table 4-2): 1 microgram/mL | MIC [3]: 1 µg/mL | MIC [4]: 1 µg/mL | MIC [5]: > 64 µg/mL | MIC [6]: 1 µg/mL | MIC [7]: 1 µg/mL | MIC [8]: 0.25 µg/mL | MIC [9]: 4 µg/mL | MIC [10]: 4 µg/mL

CC(C)(O/N=C(\C(=O)N[C@@H]1C(=O)N2C(C(=O)O)=C(/C=C/c3ccc(C[n+]4ccn(-c5ccc(O)c(O)c5)c4)cc3)CS[C@H]12)c1csc(N)n1)C(=O)O [Compound 414, 3-(4-((E)-2-((6R,7R)-7-((Z)-2-(2-aminothiazol-4-yl)-2-(((2-carboxypropan-2-yl)oxy)imino)acetamido)-2-carboxy-8-oxo-5-thia-1-azabicyclo[4.2.0]oct-2-en-3-yl)vinyl)benzyl)-1-(3,4-dihydroxyphenyl)-1H-imidazol-3-ium]
MIC [1]: 8 µg/mL | MIC [2]: 4 µg/mL | MIC (E. coli J53 Alone): 0.25 µg/mL | Mimimum Inhibitory Concentrations, J53 Alone (E. coli J53 Alone; Table 4-2): 0.25 microgram/mL | MIC [3]: 0.5 µg/mL | MIC [4]: 1 µg/mL | MIC [5]: > 64 µg/mL | MIC [6]: 8 µg/mL | MIC [7]: 1 µg/mL | MIC [8]: 1 µg/mL | MIC [9]: 1 µg/mL | MIC [10]: 2 µg/mL
